{"source": "patent US7135615B2", "about": "“Chromosome doubling method” (The Curators of the University of Missouri, priority 2001, dated 2006)", "key": {"[1]": {"test_system": "B55 haploid plants", "assay": "nitrous oxide treatment of B55 haploids (initial study, Example 1)", "protocol": "Maize haploids were induced by the stock 6 procedure (Coe 1959) and separated by the color marker R1-scm2 (Kato, 1999c). […] Haploid seeds were surface sterilized with the fungicide Captan and germinated in moist vermiculite at 30° C. for two days. The germinated seeds were planted at the edge of a small pot filled with ProMix (FIG. 1).\nApplication of a water mist to the plastic carpet may be used to prevent the occurrence of a static charge. […] The chamber was made from steel pipes and flanges designed for industrial use. Two 3 foot long pipes with flanges at both sides were connected to each other with 8 bolts to form the chamber. Iron covers were applied at the both ends. […] The chamber was preferably earthed.\nBecause the gas from the tank was very cold, use of a long introductory tube (5 m) submerged in water was made to warm up the gas before introduction into the chamber. Application of paper wrapped moistened calcium hydroxide was also preferable to absorb accumulating carbon dioxide in the chamber.\nAfter N2O treatment the seedlings were kept at warm temperature (20–25° C.) in the greenhouse for two to three days and transplanted to the field or pots in the greenhouse. […] The plants were then grown and self pollinated. Cultivation and self pollination methods were the same as for diploid maize plants."}, "[2]": {"test_system": "maize haploid seedlings of origin W22 × W23", "assay": "doubled haploid production trial, W22 × W23 haploids (Example 4)", "conditions": "600 kPa, 2 days; for Ear: No. of kernels produced/ear: selfed", "protocol": "(§1) Ten to nineteen plants were treated for each plot. Self pollinations were conducted on these treated haploids if there were fertile sectors on the tassel. Pollen grains were collected carefully on a sheet of paper and transferred to the silks repeatedly. Silks and husks were cut back prior to pollination in order to permit maximum seed set. The numbers of fertile tassel and ear sectors, as well as the numbers of anthers and selfed kernels were recorded. Statistical analyses were as described above."}, "[3]": {"test_system": "maize haploid seedlings of origin Oh43 × Mo17", "assay": "doubled haploid production trial, Oh43 × Mo17 haploids (Example 4)", "conditions": "600 kPa, 2 days; for Ear: No. of kernels produced/ear: selfed", "protocol": "as §1"}, "[4]": {"test_system": "maize haploid seedlings of origin B55 × A619", "assay": "doubled haploid production trial, B55 × A619 haploids (Example 4)", "conditions": "600 kPa, 2 days; for Ear: No. of kernels produced/ear: selfed", "protocol": "as §1"}, "[5]": {"test_system": "haploid seedlings", "assay": "survival of haploid seedlings treated with nitrous oxide gas (all experiments)", "format": "in vivo, maize (Zea mays L.)", "conditions": "450 haploid seedlings treated", "protocol": "The germinated seeds were transferred to small plastic pots filled with ProMix, a peat moss based growing medium (Hummert, St. Louis, Miss.). The seedlings were grown in a greenhouse for one to four weeks. Stock 6 induced 1–5 putative haploid kernels per ear (purple kernel with white embryo or yellow kernel with purple embryo) on all genotypes. A total of 715 putative haploid kernels were planted for the experiments. Most of them (94%) were determined to be haploid from their morphology and high sterility. The remaining 4.7% were misclassified F1s, 1.1% were hypoploids, and 0.3% (one plant induced from B73 and one plant from Oh43×Mol7) were spontaneous doubled haploids. […] In a second study, fourteen out of 50 treated Oh43 haploid seedlings died from fungus attack."}, "[6]": {"test_system": "flowers of grasses; maize haploids", "assay": "nitrous oxide procedure, general statement of doubling and selfing rates", "format": "in vivo, maize (Zea mays L.)", "from_the_text": "The technique results from studies carried out for the development of a high-yield technique for chromosome doubling in grasses and particularly, in maize. The new procedure induces doubled sectors on the flowers of grasses at a high rate (50–100%) without injuring seedlings. […] With the technique, large number of plants (1000/day) can be treated by one person. In maize haploids, doubled sectors are induced both on the tassels and ears and self pollination is possible at 30–90% level, whereas no reliable procedure for chromosome doubling had previously been available."}}, "note": "Marks after values point to notes of the source that are not given here."}
{"smiles": "[N-]=[N+]=O", "note": "[nitrous oxide gas, nitrous oxide]", "values": [{"measurement": "B55 haploid plants that could be self pollinated", "setting": "[1]; B55 haploids, 6 atm (600 kPa), two days, room temperature", "result": "70–90%"}, {"measurement": "treated plants sensitive to drought following treatment", "setting": "[1]; after N2O treatment, upon transplantation", "result": 10, "unit": "%"}, {"measurement": "induction of doubled sectors", "setting": "[1]; initial study, B55 haploids, 600 kPa", "result": "induced doubled sectors in both the tassel and the ear"}, {"measurement": "damage to plants", "setting": "[1]; initial study, sealed chamber, room temperature", "result": "not damaged"}, {"measurement": "Ear: Plants with kernels after selfing %", "setting": "[2]; 5 leaf stage", "result": 45, "unit": "n.s. %"}, {"measurement": "Tassel: No. of fertile anthers extruded/tassel", "setting": "[2]; 5 leaf stage", "result": 27.6, "unit": "n.s /tassel"}, {"measurement": "Tassel: No. of fertile sectors/tassel", "setting": "[2]; 5 leaf stage", "result": 1.1, "unit": "n.s. /tassel"}, {"measurement": "Tassel: Plants with fertile sectors %", "setting": "[2]; 5 leaf stage", "result": 64, "unit": "n.s. %"}, {"measurement": "Ear: Plants with kernels after selfing No.", "setting": "[2]; 5 leaf stage, 11 survived", "result": 5}, {"measurement": "Tassel: Plants with fertile sectors No.", "setting": "[2]; 5 leaf stage, 11 survived", "result": 7}, {"measurement": "No. of plants Survived", "setting": "[2]; 5 leaf stage, 12 treated", "result": 11}, {"measurement": "Ear: No. of kernels produced/ear", "setting": "[2]; 5 leaf stage", "result": 9.5, "unit": "n.s. /ear"}, {"measurement": "Ear: Plants with kernels after selfing %", "setting": "[2]; 6 leaf stage", "result": 40, "unit": "%"}, {"measurement": "Tassel: No. of fertile anthers extruded/tassel", "setting": "[2]; 6 leaf stage", "result": "18.0 /tassel"}, {"measurement": "Tassel: No. of fertile sectors/tassel", "setting": "[2]; 6 leaf stage", "result": "2.1 /tassel"}, {"measurement": "Tassel: Plants with fertile sectors %", "setting": "[2]; 6 leaf stage", "result": 60, "unit": "%"}, {"measurement": "Ear: Plants with kernels after selfing No.", "setting": "[2]; 6 leaf stage, 10 survived", "result": 4}, {"measurement": "Tassel: Plants with fertile sectors No.", "setting": "[2]; 6 leaf stage, 10 survived", "result": 6}, {"measurement": "No. of plants Survived", "setting": "[2]; 6 leaf stage, 12 treated", "result": 10}, {"measurement": "Ear: No. of kernels produced/ear", "setting": "[2]; 6 leaf stage", "result": "3.3 /ear"}, {"measurement": "Ear: Plants with kernels after selfing %", "setting": "[2]; 7 leaf stage", "result": 43, "unit": "%"}, {"measurement": "Tassel: No. of fertile anthers extruded/tassel", "setting": "[2]; 7 leaf stage", "result": "7.1 /tassel"}, {"measurement": "Tassel: No. of fertile sectors/tassel", "setting": "[2]; 7 leaf stage", "result": "1.9 /tassel"}, {"measurement": "Tassel: Plants with fertile sectors %", "setting": "[2]; 7 leaf stage", "result": 71, "unit": "%"}, {"measurement": "Ear: Plants with kernels after selfing No.", "setting": "[2]; 7 leaf stage, 7 survived", "result": 3}, {"measurement": "Tassel: Plants with fertile sectors No.", "setting": "[2]; 7 leaf stage, 7 survived", "result": 5}, {"measurement": "No. of plants Survived", "setting": "[2]; 7 leaf stage, 8 treated", "result": 7}, {"measurement": "Ear: No. of kernels produced/ear", "setting": "[2]; 7 leaf stage", "result": "11.4 /ear"}, {"measurement": "Ear: Plants with kernels after selfing %", "setting": "[3]; 5 leaf stage", "result": 27, "unit": "n.s. %"}, {"measurement": "Tassel: No. of fertile anthers extruded/tassel", "setting": "[3]; 5 leaf stage", "result": "4.2 /tassel"}, {"measurement": "Tassel: Plants with fertile sectors %", "setting": "[3]; 5 leaf stage", "result": "73** %"}, {"measurement": "Ear: Plants with kernels after selfing No.", "setting": "[3]; 5 leaf stage, 11 survived", "result": 3}, {"measurement": "Tassel: Plants with fertile sectors No.", "setting": "[3]; 5 leaf stage, 11 survived", "result": 8}, {"measurement": "No. of plants Survived", "setting": "[3]; 5 leaf stage, 11 treated", "result": 11}, {"measurement": "Ear: No. of kernels produced/ear", "setting": "[3]; 5 leaf stage", "result": 0.5, "unit": "n.s. /ear"}, {"measurement": "Ear: Plants with kernels after selfing %", "setting": "[3]; 6 leaf stage", "result": 38, "unit": "%"}, {"measurement": "Tassel: No. of fertile anthers extruded/tassel", "setting": "[3]; 6 leaf stage", "result": "29.8** /tassel"}, {"measurement": "Tassel: No. of fertile sectors/tassel", "setting": "[3]; 6 leaf stage", "result": "2.5** /tassel"}, {"measurement": "Tassel: Plants with fertile sectors %", "setting": "[3]; 6 leaf stage", "result": "100** %"}, {"measurement": "Ear: Plants with kernels after selfing No.", "setting": "[3]; 6 leaf stage, 13 survived", "result": 5}, {"measurement": "Tassel: Plants with fertile sectors No.", "setting": "[3]; 6 leaf stage, 13 survived", "result": 13}, {"measurement": "No. of plants Survived", "setting": "[3]; 6 leaf stage, 14 treated", "result": 13}, {"measurement": "Ear: No. of kernels produced/ear", "setting": "[3]; 6 leaf stage", "result": "3.8 /ear"}, {"measurement": "Ear: Plants with kernels after selfing %", "setting": "[3]; 7 leaf stage", "result": 13, "unit": "%"}, {"measurement": "Tassel: No. of fertile anthers extruded/tassel", "setting": "[3]; 7 leaf stage", "result": "8.3* /tassel"}, {"measurement": "Tassel: No. of fertile sectors/tassel", "setting": "[3]; 7 leaf stage", "result": "1.8** /tassel"}, {"measurement": "Tassel: Plants with fertile sectors %", "setting": "[3]; 7 leaf stage", "result": "73** %"}, {"measurement": "Ear: Plants with kernels after selfing No.", "setting": "[3]; 7 leaf stage, 15 survived", "result": 2}, {"measurement": "Tassel: Plants with fertile sectors No.", "setting": "[3]; 7 leaf stage, 15 survived", "result": 11}, {"measurement": "No. of plants Survived", "setting": "[3]; 7 leaf stage, 19 treated", "result": 15}, {"measurement": "Ear: No. of kernels produced/ear", "setting": "[3]; 7 leaf stage", "result": "0.6 /ear"}, {"measurement": "Ear: Plants with kernels after selfing %", "setting": "[4]; 5 leaf stage", "result": 33, "unit": "%"}, {"measurement": "Tassel: No. of fertile anthers extruded/tassel", "setting": "[4]; 5 leaf stage", "result": "25.7** /tassel"}, {"measurement": "Tassel: No. of fertile sectors/tassel", "setting": "[4]; 5 leaf stage", "result": "1.1* /tassel"}, {"measurement": "Tassel: Plants with fertile sectors %", "setting": "[4]; 5 leaf stage", "result": "67** %"}, {"measurement": "Ear: Plants with kernels after selfing No.", "setting": "[4]; 5 leaf stage, 15 survived", "result": 5}, {"measurement": "Tassel: Plants with fertile sectors No.", "setting": "[4]; 5 leaf stage, 15 survived", "result": 10}, {"measurement": "No. of plants Survived", "setting": "[4]; 5 leaf stage, 15 treated", "result": 15}, {"measurement": "Ear: No. of kernels produced/ear", "setting": "[4]; 5 leaf stage", "result": "1.3 /ear"}, {"measurement": "Ear: Plants with kernels after selfing %", "setting": "[4]; 6 leaf stage", "result": "50** %"}, {"measurement": "Tassel: No. of fertile anthers extruded/tassel", "setting": "[4]; 6 leaf stage", "result": "109.9** /tassel"}, {"measurement": "Tassel: No. of fertile sectors/tassel", "setting": "[4]; 6 leaf stage", "result": "3.1** /tassel"}, {"measurement": "Tassel: Plants with fertile sectors %", "setting": "[4]; 6 leaf stage", "result": "71** %"}, {"measurement": "Ear: Plants with kernels after selfing No.", "setting": "[4]; 6 leaf stage, 14 survived", "result": 7}, {"measurement": "Tassel: Plants with fertile sectors No.", "setting": "[4]; 6 leaf stage, 14 survived", "result": 10}, {"measurement": "No. of plants Survived", "setting": "[4]; 6 leaf stage, 14 treated", "result": 14}, {"measurement": "Ear: No. of kernels produced/ear", "setting": "[4]; 6 leaf stage", "result": "9.5* /ear"}, {"measurement": "Ear: Plants with kernels after selfing %", "setting": "[4]; 7 leaf stage", "result": "62** %"}, {"measurement": "Tassel: No. of fertile anthers extruded/tassel", "setting": "[4]; 7 leaf stage", "result": "60.2** /tassel"}, {"measurement": "Tassel: No. of fertile sectors/tassel", "setting": "[4]; 7 leaf stage", "result": "3.9** /tassel"}, {"measurement": "Tassel: Plants with fertile sectors %", "setting": "[4]; 7 leaf stage", "result": "92** %"}, {"measurement": "Ear: Plants with kernels after selfing No.", "setting": "[4]; 7 leaf stage, 13 survived", "result": 8}, {"measurement": "Tassel: Plants with fertile sectors No.", "setting": "[4]; 7 leaf stage, 13 survived", "result": 12}, {"measurement": "No. of plants Survived", "setting": "[4]; 7 leaf stage, 13 treated", "result": 13}, {"measurement": "Ear: No. of kernels produced/ear", "setting": "[4]; 7 leaf stage", "result": "15.7** /ear"}, {"measurement": "survived the treatment", "setting": "[5]", "result": 92, "unit": "%"}, {"measurement": "rate of doubled sectors induced on the flowers of grasses", "setting": "[6]; grasses, without injuring seedlings", "result": "50–100%"}, {"measurement": "level at which self pollination is possible", "setting": "[6]; maize haploids, doubled sectors on both tassels and ears", "result": "30–90%"}]}
